Experimental data: doi:10.1101/2025.08.06.668955, “High-Affinity, Structure-Validated and Selective Macrocyclic Peptide Tools for Chemical Biology Studies of Huntingtin” (bioRxiv, 2025)
Where a SMILES comes first, the peptide text is derived from it. Bridges are numbered along the chain shown (N, C = ends).

Legend:
[1] = tested on: HAP40; test: Macrocycle precipitation (MP), co-purification of HAP40, LC-MS/MS; assay type: binding, human; details: HEK293T lysate versus HTT CRISPR knockout line
[2] = tested on: HTT; test: HL2 macrocycle pulldown from isogenic neuronal progenitor cells (NPCs), LC-MS/MS; assay type: binding, human; details: isogenic NPC lines Q30/Q19, Q45/Q19 and Q81/Q27
Text: We extended our analysis to isogenic neuronal progenitor cells (NPCs), which more closely resemble the neuronal populations affected in HD, both functionally and in terms of gene expression profiles ([Ooi et al., 2019]). […] Thus, we compared HL2 protein enrichment profiles across isogenic NPC lines harboring non-expanded (Q30/Q19) and expanded CAG repeats (Q45/Q19 and Q81/Q27).
Successful macrocycle-mediated pulldown was first confirmed by western blot in all NPC lines (Supplementary Figure 14a). […] HTT and HAP40 were the only proteins consistently overlapping across all three NPC lines (Supplementary Figure 14b). […]
Cells were harvested by centrifugation at 1,500 rpm for 5 minutes, washed twice with PBS, and snap-frozen. […] Protein concentration was determined by BCA assay (Thermo Fisher Scientific, 23225), yielding approximately 4 mg of protein on average. […]
All sample preparation, LC MS/MS data collection, and MS data searches were carried out at the SPARC BioCentre at The Hospital for Sick Children (Toronto, ON, Canada). […] Samples were analyzed by liquid chromatography tandem mass spectrometry (LC-MS/MS) using an EASY-nanoLC 1200 system with a 1 h analysis and an Orbitrap Fusion™ Lumos™ Tribrid™ Mass Spectrometer (Thermo Fisher Scientific). […]

Compound: CC(C)C[C@@H]1NC(=O)[C@H](Cc2ccc(O)cc2)NC(=O)[C@H](CCCNC(=N)N)NC(=O)[C@H](C)NC(=O)[C@H]([C@@H](C)O)NC(=O)[C@H](Cc2ccc(O)cc2)NC(=O)CSC[C@@H](C(N)=O)NC(=O)[C@H](CCCCN)NC(=O)[C@H](Cc2ccc(O)cc2)NC(=O)[C@H](Cc2c[nH]cn2)NC(=O)[C@H](CC(C)C)NC(=O)[C@H]([C@@H](C)O)NC(=O)CNC(=O)[C@H](CC(C)C)NC(=O)[C@H]([C@@H](C)O)NC1=O [HL2] ({CH2CO}-YTARYLTLGTLHYKC-NH2; thioether N-15; C-terminus assumed)
- Enrichment of HAP40 in macrocycle pulldowns [1]: consistently enriched
- Enrichment of HTT in HL2 pulldown from NPC lines by LC-MS/MS [2]: most abundantly enriched protein across all lines
